The target in this experiment is T1, GPR40 of human origin (Homo sapiens, UniProt O14842).
T1 construct: expressed in transfected cells
T1 sequence (O14842 whole entry): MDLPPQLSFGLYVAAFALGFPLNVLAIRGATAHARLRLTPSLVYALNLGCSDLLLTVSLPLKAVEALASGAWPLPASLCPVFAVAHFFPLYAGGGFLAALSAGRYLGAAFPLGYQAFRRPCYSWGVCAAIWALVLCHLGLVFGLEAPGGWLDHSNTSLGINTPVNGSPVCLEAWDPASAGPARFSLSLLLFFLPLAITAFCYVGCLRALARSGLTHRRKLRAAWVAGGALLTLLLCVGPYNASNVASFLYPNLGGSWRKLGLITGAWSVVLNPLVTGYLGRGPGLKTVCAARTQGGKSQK
Briefly: Agonist action on GPR40 of human origin (Ca2+ fluorescence in a CHO cell strain stably expressing GPR40). The format is cell-based. The settings on record: Ca2+ concentration fluctuation, fluorescence intensity. The protocol:
A CHO cell strain stably expressing GPR40 of human origin was used to determine the agonist action of a subject compound. This cell strain was seeded in a clear bottom 96 well plate at 4×10^4 cells/100 μL/well. The cell strain was cultured in a CO2 incubator overnight using a Ham's F-12 medium containing a 10% fetal bovine serum, 100 U/mL penicillin, 0.1 mg/mL streptomycin, and 400 μg/mL Geneticin. Calcium 4 Assay Kit (Molecular Devices) was used as a fluorescent calcium indicator. One mL of 77 mg/mL probenecid (Invitrogen) was added to 100 mL of a calcium indicator solution to prepare a solution (loading solution) mixed with a 20 mM HEPES-containing Hanks' balanced salt solution (HBSS) in equal proportions. 200 μL of the loading solution was added to the cells from which the culture solution was removed, and the cells were cultured in a CO2 incubator for 1 hour. The subject compound was diluted with a 20 mM HEPES-containing HBSS and was added to the cells by 50 μL, and the fluctuation of the Ca^2+ concentration was measured by an intracellular ion analyzer. The EC50 value of the subject compound was calculated using the dose-response curve of fluorescence intensity variation.
Turning to `Cc1cc(OCCC(C)(C)O)nc(C)c1-c1cccc(COc2ccc(-c3cc(O)no3)cc2)c1` [Example 41, 5-(4-((3-(2,4-dimethyl-6-(3-hydroxy-3-methylbutoxy)pyridin-3-yl)phenyl)methoxy)phenyl)isoxazol-3-ol], the EC50 (as a rule, the concentration giving half of the maximal effect) is < 300 nM.
As for `Cc1cc(OCCCN2CCCC2=O)cc(C)c1-c1cccc(COc2ccc(-c3cc(O)no3)cc2)c1` [Example 43, 1-[3-[4-[3-[[4-(3-hydroxy-1,2-oxazol-5-yl)phenoxy]methyl]phenyl]-3,5-dimethylphenoxy]propyl]pyrrolidin-2-one], the figure is < 300 nM; as for `COc1ncccc1-c1cccc2c1CCC2Oc1ccc(-c2cc(O)no2)cc1` (stereo not drawn) [Example 23, 5-(4-(2,3-dihydro-4-(2-methoxypyridin-3-yl)-1H-inden-1-yloxy)phenyl)isoxazol-3-ol], < 300 nM.
Then `Oc1cc(-c2ccc(OC3CCc4c3ccc(Cl)c4Cl)cc2)on1` (stereo not drawn) [Example 19, 5-(4-(4,5-dichloro-2,3-dihydro-1H-inden-1-yloxy)phenyl)isoxazol-3-ol], with 300 to 3000 nM.
As for `Cc1nc(OCCC(C)(C)O)ccc1-c1cccc(COc2ccc(-c3cc(O)no3)cc2)c1C` [Example 39, 5-(4-((3-(6-(3-hydroxy-3-methylbutoxy)-2-methylpyridin-3-yl)-2-methylphenyl)methoxy)phenyl)isoxazol-3-ol], the figure is < 300 nM; as for `Cc1cc(OCCC(C)(C)O)cc(C)c1-c1cccc(COc2ccc(-c3cc(O)no3)cc2)c1C` [Example 45, 5-[4-[[3-[4-(3-hydroxy-3-methylbutoxy)-2,6-dimethylphenyl]-2-methylphenyl]methoxy]phenyl]-1,2-oxazol-3-ol], < 300 nM.
Molecule `Oc1cc(-c2ccc(OC3CCc4c(-c5ccc6cc[nH]c6c5)cccc43)cc2)on1` (stereo not drawn) [Example 35, 5-(4-(2,3-dihydro-4-(1H-indol-6-yl)-1H-inden-1-yloxy)phenyl)isoxazol-3-ol] returned an EC50 of 300 to 3000 nM.
For `Oc1cc(-c2ccc(OC3CCc4cc(Cl)ccc43)cc2)on1` (stereo not drawn) [Example 13, 5-(4-(5-chloro-2,3-dihydro-1H-inden-1-yloxy)phenyl)isoxazol-3-ol], the EC50 is 300 to 3000 nM.
Take `Oc1cc(-c2ccc(OC3CCc4cc(Br)ccc43)cc2)on1` (stereo not drawn) [Example 14, 5-(4-(5-bromo-2,3-dihydro-1H-inden-1-yloxy)phenyl)isoxazol-3-ol]: the EC50 was 300 to 3000 nM.
As for `Cc1cc(OC[C@H](O)CO)cc(C)c1-c1cccc(COc2ccc(-c3cc(O)no3)cc2)c1C` [Example 44, (2R)-3-[4-[3-[[4-(3-hydroxy-1,2-oxazol-5-yl)phenoxy]methyl]-2-methylphenyl]-3,5-dimethylphenoxy]propane-1,2-diol], the figure is < 300 nM.
For `Cc1cc(OCC[C@@H](C)O)cc(C)c1-c1cccc2c1CCC2Oc1ccc(-c2cc(O)no2)cc1` (stereo partly drawn) [Example 36, 5-[4-[[4-[4-[(3R)-3-hydroxybutoxy]-2,6-dimethylphenyl]-2,3-dihydro-1H-inden-1-yl]oxy]phenyl]-1,2-oxazol-3-ol], the EC50 is < 300 nM.
Then `Cc1cc(-c2cccc(COc3ccc(-c4cc(O)no4)cc3)c2C)c(C)nc1OCCC(C)(C)O` [Example 47, 5-[4-[[3-[6-(3-hydroxy-3-methylbutoxy)-2,5-dimethylpyridin-3-yl]-2-methylphenyl]methoxy]phenyl]-1,2-oxazol-3-ol], with < 300 nM; and `Cc1cc(OCCCS(C)(=O)=O)cc(C)c1-c1cccc(COc2ccc(-c3cc(O)no3)cc2)c1` [Example 42, 5-[4-[[3-[2,6-dimethyl-4-(3-methylsulfonylpropoxy)phenyl]phenyl]methoxy]phenyl]-1,2-oxazol-3-ol], with < 300 nM; and `Oc1cc(-c2ccc(OC3CCc4c(-c5ccc6c(c5)OCCO6)cccc43)cc2)on1` (stereo not drawn) [Example 34, 5-(4-(2,3-dihydro-4-(1,4-benzodioxan-6-yl)-1H-inden-1-yloxy)phenyl)isoxazol-3-ol], with 300 to 3000 nM.
In the case of `Oc1cc(-c2ccc(OC3CCc4c(Cc5ccccc5)cccc43)cc2)on1` (stereo not drawn) [Example 30, 5-(4-(4-benzyl-2,3-dihydro-1H-inden-1-yloxy)phenyl)isoxazol-3-ol], the concentration giving a half-maximal response (EC50) is < 300 nM.
On to `Cc1c(COc2ccc(-c3cc(O)no3)cc2)cccc1-c1cnc(OCCC(C)(C)O)c(C)c1C` [Example 46, 5-[4-[[3-[6-(3-hydroxy-3-methylbutoxy)-4,5-dimethylpyridin-3-yl]-2-methylphenyl]methoxy]phenyl]-1,2-oxazol-3-ol], for which the EC50 is < 300 nM.
Then `Oc1cc(-c2ccc(NC3CCc4cc(Cl)ccc43)cc2)on1` (stereo not drawn) [Example 31, 5-(4-(5-chloro-2,3-dihydro-1H-inden-1-ylamino)phenyl)isoxazol-3-ol], with 300 to 3000 nM.
Then `Cc1cc(OCCC(C)(C)O)ncc1-c1cccc(COc2ccc(-c3cc(O)no3)cc2)c1C` [Example 38, 5-(4-((3-(6-(3-hydroxy-3-methylbutoxy)-4-methylpyridin-3-yl)-2-methylphenyl)methoxy)phenyl)isoxazol-3-ol], with < 300 nM; and `Oc1cc(-c2ccc(OC3CCc4c(OCc5ccccc5C(F)(F)F)cccc43)cc2)on1` (stereo not drawn) [Example 29, 5-(4-(2,3-dihydro-4-(2-(trifluoromethyl)benzyloxy)-1H-inden-1-yloxy)phenyl)isoxazol-3-ol], with 300 to 3000 nM.
Then `Oc1cc(-c2ccc(OC3Cc4ccccc4C3)cc2)on1` [Example 2, 5-(4-(2,3-dihydro-1H-inden-2-yloxy)phenyl)isoxazol-3-ol], with < 300 nM; and `N#Cc1cccc2c1CCC2Oc1ccc(-c2cc(O)no2)cc1` (stereo not drawn) [Example 12, 5-(4-(4-cyano-2,3-dihydro-1H-inden-1-yloxy)phenyl)isoxazol-3-ol], with 300 to 3000 nM; and `Oc1cc(-c2ccc(OC3CCc4c(Cl)cccc43)cc2)on1` (stereo not drawn) [Example 11, 5-(4-(4-chloro-2,3-dihydro-1H-inden-1-yloxy)phenyl)isoxazol-3-ol], with < 300 nM.
For `Oc1cc(-c2ccc(OC3CCc4c(Oc5ccccc5)cccc43)cc2)on1` (stereo not drawn) [Example 26, 5-(4-(2,3-dihydro-4-phenoxy-1H-inden-1-yloxy)phenyl)isoxazol-3-ol], the 50% effective concentration (EC50) was < 300 nM.
As for `Cc1cc(OCCC(C)(C)O)nc(C)c1-c1cccc(COc2ccc(-c3cc(O)no3)cc2)c1C` [Example 40, 5-(4-((3-(2,4-dimethyl-6-(3-hydroxy-3-methylbutoxy)pyridin-3-yl)-2-methylphenyl)methoxy)phenyl)isoxazol-3-ol], the figure is < 300 nM; as for `Cc1cc(OCCC(C)(C)O)cc(C)c1-c1cccc2c1CCC2Oc1ccc(-c2cc(O)no2)cc1` (stereo not drawn) [Example 37, 5-[4-[[4-[4-(3-hydroxy-3-methylbutoxy)-2,6-dimethylphenyl]-2,3-dihydro-1H-inden-1-yl]oxy]phenyl]-1,2-oxazol-3-ol], < 300 nM; as for `COc1cccc(-c2cccc3c2CCC3Oc2ccc(-c3cc(O)no3)cc2)c1` (stereo not drawn) [Example 21, 5-(4-(2,3-dihydro-4-(3-methoxyphenyl)-1H-inden-1-yloxy)phenyl)isoxazol-3-ol], < 300 nM.
Then `Cc1cc(OCCC(C)(C)O)nc(C)c1-c1cccc2c1CCC2Oc1ccc(-c2cc(O)no2)cc1` (stereo not drawn) [Example 24, 5-(4-(4-(6-(3-hydroxy-3-methylbutoxy)-2,4-dimethylpyridin-3-yl)-2,3-dihydro-1H-inden-1-yloxy)phenyl)isoxazol-3-ol], with < 300 nM.

Values taken from patent US8455500B2, “3-hydroxy-5-arylisoxazole derivative” (Mochida Pharmaceutical Co., Ltd., priority 2009, dated 2013).
